Biological target: T1, hDGAT1 (Homo sapiens, UniProt O75907)
T1 construct: host or cells: Sf9 insect cells (baculovirus); microsomal preparation
T1 sequence (O75907 1-488): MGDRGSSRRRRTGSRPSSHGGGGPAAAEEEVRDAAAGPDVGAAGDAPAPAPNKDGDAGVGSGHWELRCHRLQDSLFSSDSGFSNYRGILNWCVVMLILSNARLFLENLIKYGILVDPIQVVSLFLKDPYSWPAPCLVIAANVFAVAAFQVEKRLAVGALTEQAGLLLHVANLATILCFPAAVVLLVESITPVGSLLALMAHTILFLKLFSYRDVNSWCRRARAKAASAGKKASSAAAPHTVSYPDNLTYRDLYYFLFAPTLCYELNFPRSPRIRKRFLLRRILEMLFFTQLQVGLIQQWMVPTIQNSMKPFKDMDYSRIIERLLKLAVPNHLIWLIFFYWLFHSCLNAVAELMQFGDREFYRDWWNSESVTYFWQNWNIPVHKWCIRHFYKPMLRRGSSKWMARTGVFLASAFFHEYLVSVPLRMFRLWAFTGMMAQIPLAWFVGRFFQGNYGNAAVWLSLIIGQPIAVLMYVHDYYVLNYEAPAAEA
Assay: In-vitro DGAT1 assay (hDGAT1 microsomes from Sf9 cells, 14C oleoyl CoA, triglyceride formation)
Type: biochemical
Summary of the method: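 Compounds tested in duplicate at 10, 5 and 1 μM for 10 min at 37 °C. Reaction: Sf9-expressed hDGAT1 microsomes (2.5–10 μg), [14C]oleoyl-CoA plus 409.5–1638 μM dioleoylglycerol, pH 7.4 Tris-HCl with fatty-acid-free BSA. Radiolabelled triglyceride extracted into heptane and scintillation-counted.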

## C=C(NC(=O)c1cc(-c2ccc(NC(=O)Nc3ccc(C)cc3)cc2)no1)C(=O)OC [Example 303, Methyl 2-(3-(4-(3-p-tolylureido)phenyl)isoxazole-5-carboxamido) acrylate]
At 1 μM
  % inhibition of hDGAT1: + (>0% Inhibition ≦50)

## COC[C@H](NC(=O)c1cc(-c2ccc(Nc3nc4ccc(F)cc4s3)cc2)no1)C(=O)O [Example 13, (S)-2-({3-[4-(6-Fluoro-benzothiazol-2-ylamino)-phenyl]-isoxazole-5-carbonyl}-amino)-3-methoxy-propionic acid]
  inhibition at 10 µM: 75 to 100%

## Cc1ccc(NC(=O)Nc2ccc(-c3cc(C(=O)NC(C(=O)O)C(C)C)on3)cc2)cc1 (stereo not drawn) [Example 126, 3-Methyl-2-(3-(4-(3-p-tolylureido)phenyl)isoxazole-5-carboxamido) butanoic acid]
  inhibition at 10 µM: 75 to 100%

## Cc1ccc(Cl)c(NC(=O)Nc2ccc(-c3cc(C(=O)N[C@H](C(=O)O)C(C)C)on3)cc2)c1 [Example 189, (S)-2-(3-(4-(3-(2-chloro-5-methylphenyl)ureido)phenyl)isoxazole-5-carboxamido)-3-methylbutanoic acid]
At 1 μM
  inhibition at 1 µM: 75 to 100%

## Cc1ccccc1S(=O)(=O)NC(=O)Nc1ccc(-c2cc(C(=O)NC(C(=O)O)C(C)C)on2)cc1 (stereo not drawn) [Example 264, 3-Methyl-2-(3-(4-(3-(o-tolylsulfonyl)ureido)phenyl)isoxazole-5-carboxamido)butanoic acid]
  inhibition at 5 µM: 0 to 50%

## CC(C)[C@H](NC(=O)c1cc(-c2ccc(NC(=O)Nc3ccc4c(c3)OCO4)cc2)no1)C(=O)O [Example 177, (S)-2-(3-(4-(3-benzo[d][1,3]dioxol-5-ylureido)phenyl)isoxazole-5-carboxamido)-3-methylbutanoic acid]
At 1 μM
  inhibition at 1 µM: 75 to 100%

## O=C(N[C@H](C(=O)O)c1ccccc1)c1cc(-c2ccc(Nc3nc4ccc(F)cc4s3)cc2)no1 [Example 53, (S)-({3-[4-(6-Fluoro-benzothiazol-2-ylamino)-phenyl]-isoxazole-5-carbonyl}-amino)-phenyl-acetic acid]
  inhibition at 10 µM: 75 to 100%

## CC(C)[C@H](NC(=O)c1nc(-c2ccc(NC(=O)Nc3ccc(F)cc3)cc2)no1)C(=O)O [Example 343, (S)-2-(3-(4-(3-(4-Fluorophenyl)ureido)phenyl)-1,2,4-oxadiazole-5-carboxamido)-3-methylbutanoic acid]
  inhibition at 5 µM: 50 to 75%

## COC[C@H](NC(=O)c1cc(-c2cccc(Nc3nc4ccc(F)cc4s3)c2)no1)C(=O)OC [Example 28, (S)-2-({3-[3-(6-Fluoro-benzothiazol-2-ylamino)-phenyl]-isoxazole-5-carbonyl}-amino)-3-methoxy-propionic acid methyl ester]
  inhibition at 10 µM: 0 to 50%

## CC(C)[C@@H](NC(=O)c1cc(-c2ccc(NS(=O)(=O)c3cc(F)cc(F)c3)cc2)no1)C(=O)O [Example 320, (R)-2-(3-(4-(3,5-Difluorophenylsulfonamido)phenyl)isoxazole-5-carboxamido)-3-methylbutanoic acid]
At 1 μM
  inhibition at 1 µM: 0 to 50%

## COC(=O)[C@@H](NC(=O)c1nc(-c2ccc(NC(=O)NCc3ccccc3)cc2)no1)C(C)C [Example 352, (S)-methyl 2-(3-(4-(3-benzylureido)phenyl)-1,2,4-oxadiazole-5-carboxamido)-3-methylbutanoate]
  inhibition at 5 µM: 0 to 50%

## COC(=O)C(CC(C)C)NC(=O)c1cc(-c2ccc(NC(=O)Nc3ccc(F)cc3F)cc2C)no1 (stereo not drawn) [Example 139, Methyl 2-(3-(4-(3-(2,4-difluorophenyl)ureido)-2-methylphenyl)isoxazole-5-carboxamido)-4-methylpentanoate]
  inhibition at 10 µM: 0 to 50%

## O=C(O)[C@@H]1CCCN1C(=O)c1cc(-c2cccc(Nc3nc4ccc(F)cc4s3)c2)no1 [Example 35, (S)-1-{3-[3-(6-Fluoro-benzothiazol-2-ylamino)-phenyl]-isoxazole-5-carbonyl}-pyrrolidine-2-carboxylic acid]
  inhibition at 10 µM: 0 to 50%

## CC(C)C(NC(=O)c1cc(-c2ccc(NC(=O)C(=O)Nc3ccc(F)cc3F)cc2)no1)C(=O)O (stereo not drawn) [Example 339, 2-(3-(4-(2-(2,4-difluorophenylamino)-2-oxoacetamido)phenyl)isoxazole-5-carboxamido)-3-methylbutanoic acid]
At 1 μM
  inhibition at 1 µM: 0 to 50%

## COC(=O)[C@H](C(C)C)N(C)C(=O)c1cc(-c2ccc(NC(=O)Nc3cccc(C(F)(F)F)c3)cc2)no1 [Example 309, (S)-methyl 3-methyl-2-(N-methyl-3-(4-(3-(3-(trifluoromethyl)phenyl)ureido)phenyl)isoxazole-5-carboxamido)butanoate]
At 1 μM
  inhibition at 1 µM: 50 to 75%

## O=C(NC1(C(=O)O)CCCC1)c1cc(-c2ccc(Nc3nc4ccc(F)cc4s3)cc2)no1 [Example 63, 1-({3-[4-(6-Fluoro-benzothiazol-2-ylamino)-phenyl]-isoxazole-5-carbonyl}-amino)-cyclopentanecarboxylic acid]
  inhibition at 10 µM: 0 to 50%

## COC(=O)[C@@H](NC(=S)c1c(-c2ccc(Nc3nc4ccc(F)cc4s3)cc2)noc1-c1ccccc1)C(C)C [Example 72, (S)-2-({3-[4-(6-Fluoro-benzothiazol-2-ylamino)-phenyl]-5-phenyl-isoxazole-4-carbothioyl}-amino)-3-methyl-butyric acid methyl ester]
  inhibition at 10 µM: 0 to 50%

## Cc1ccc(NC(=O)Nc2ccc(-c3cc(C(=O)N[C@H](C(=O)O)C(C)C)on3)cc2)c(C)c1 [Example 171, (S)-2-(3-(4-(3-(2,4-dimethylphenyl)ureido)phenyl)isoxazole-5-carboxamido)-3-methylbutanoic acid]
At 1 μM
  inhibition at 1 µM: 75 to 100%

## CC(C)C(NC(=O)c1cc(-c2ccc(NC(=O)Nc3cccc(C(F)(F)F)c3)cc2)no1)C(=O)O (stereo not drawn) [Example 278, 3-Methyl-2-(3-(4-(3-(3-(trifluoromethyl)phenyl)ureido)phenyl)isoxazole-5-carboxamido)butanoic acid]
  inhibition at 5 µM: 75 to 100%

## COC(=O)[C@H](NC(=O)c1cc(-c2ccc(NS(=O)(=O)c3ccc(C(F)(F)F)cc3)cc2)no1)C(C)C [Example 318, (R)-methyl 3-methyl-2-(3-(4-(4-(trifluoromethyl)phenylsulfonamido)phenyl)isoxazole-5-carboxamido)butanoate]
At 1 μM
  inhibition at 1 µM: 0 to 50%

## COC(=O)[C@@H]1CCCN1C(=S)c1cc(-c2cccc(Nc3nc4ccc(F)cc4s3)c2)no1 [Example 36, (S)-1-{3-[3-(6-Fluoro-benzothiazol-2-ylamino)-phenyl]-isoxazole-5-carbothioyl}-pyrrolidine-2-carboxylic acid methyl ester]
  inhibition at 10 µM: 50 to 75%

## COC(=O)[C@@H](NC(=O)c1cc(-c2ccc(NC(=O)Nc3ccc(F)cc3F)cc2F)no1)C(C)C [Example 141, (S)-Methyl 2-(3-(4-(3-(2,4-difluorophenyl)ureido)-2-fluorophenyl)isoxazole-5-carboxamido)-3-methylbutanoate]
  inhibition at 5 µM: 0 to 50%

## COC(=O)[C@H]1CCCN1C(=O)c1cc(-c2ccc(NC(=O)Nc3ccccc3F)cc2)no1 [Example 259, (R)-Methyl 1-(3-(4-(3-(2-fluorophenyl)ureido)phenyl)isoxazole-5-carbonyl)pyrrolidine-2-carboxylate]
At 1 μM
  inhibition at 1 µM: 50 to 75%

## COC(=O)[C@H](CO)NC(=O)c1cc(-c2ccc(Nc3nc4ccc(F)cc4s3)cc2)no1 [Example 9, (S)-2-({3-[4-(6-Fluoro-benzothiazol-2-ylamino)-phenyl]-isoxazole-5-carbonyl}-amino)-3-hydroxy-propionic acid methyl ester]
  inhibition at 10 µM: 0 to 50%
